Experimental data reported in ChEMBL document CHEMBL1129718, “Morphan based substance P antagonists” (Bioorg Med Chem Lett, 1996).

Biological target: Substance-P receptor (Homo sapiens, UniProt P25103)
Assay: Compound was evaluated for binding affinity towards neurokinin NK1 receptor.

Substance-P receptor, sequence (P25103 whole entry): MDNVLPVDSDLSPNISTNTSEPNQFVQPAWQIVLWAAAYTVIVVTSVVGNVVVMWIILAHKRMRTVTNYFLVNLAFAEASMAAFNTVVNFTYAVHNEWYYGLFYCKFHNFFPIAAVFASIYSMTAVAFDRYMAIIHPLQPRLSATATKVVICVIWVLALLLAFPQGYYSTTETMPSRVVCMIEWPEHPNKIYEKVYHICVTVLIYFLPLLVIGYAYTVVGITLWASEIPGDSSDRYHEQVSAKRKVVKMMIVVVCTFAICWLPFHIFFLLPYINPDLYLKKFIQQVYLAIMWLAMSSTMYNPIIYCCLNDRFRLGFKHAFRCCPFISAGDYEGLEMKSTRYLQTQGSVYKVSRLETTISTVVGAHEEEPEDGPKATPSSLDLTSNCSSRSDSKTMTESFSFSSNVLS

Row | Compound | Ki
1 | COc1ccccc1CN[C@H]1C2CCNC1(c1ccccc1)CC=C2C (some centres not stated) | 0.631 nM
2 | COc1ccccc1CN[C@@H]1C2CCNC1(c1ccccc1)CC=C2C (some centres not stated) | > 3160 nM
